Test results taken from PMC8000840, “Novel IMB16-4 Compound Loaded into Silica Nanoparticles Exhibits Enhanced Oral Bioavailability and Increased Anti-Liver Fibrosis In Vitro” (Molecules, 2021).
≈ marks a conversion by molar mass, not a printed value.

What was measured:
NAFLD model rats = test system: NAFLD model rats; design: method as in PMID 23752471, PMID 30573812; conditions: NAFLD model rats ref 18, 19; cited from earlier work
[1] = test system: α-SMA, TGF-β1 and MMP2 protein levels in LX-2 cells; assay: In vitro antifibrotic effects, Western blot of hepatic fibrogenic markers after TGFβ1 stimulation; type: cell-based, human; conditions: IMB16-4 2 µM, TGFβ1 2 ng/mL, 24 h
Method: After ultraviolet sterilization, raw IMB16-4, IMB16-4-MSNs and MSNs were suspended in water, respectively. Another group of raw IMB16-4 was suspended in DMSO. The concentration of IMB16-4 was 2 mM. Then, 2µL of solution containing IMB16-4 was added into 2 mL of serum-free culture with TGFβ1. LX-2 cells were cultured as described above. LX-2 cells were seeded in a 6-well plate, cultured in DMEM/GlutaMAX I, containing 10% fetal bovine serum (FBS) in 5% CO2 atmosphere at 37 °C. Serum-free culture was replaced until the cells reached 90 ≈ 95% confluence. After 24 h, cells were treated with TGFβ1 (2 ng/mL) and IMB16-4 (2 µM) for 24 h. Then, cells were washed with phosphate buffer saline (PBS) and protein was extracted in radio-immunoprecipitation assay (RIPA) buffer. Then mixture was centrifuged at 12,000 rpm at 4 °C for 20 min. The supernatant was collected, and the total protein was determined using the bicinchoninic acid (BCA) protein assay kit (Beyotime Biotechnology, China). Samples were applied to the 10% SDS-PAGE gel. Then, the protein bands were transferred to a polyvinylidene difluoride (PVDF) membrane (Millipore Corp, Atlanta, GA, USA) and the membrane was blocked for 1 h with 5% nonfat milk. […] The protein bands were analyzed on an imager (Tanon5200, China).

[2] = Equilibrium concentration (solubility) study in water; type: physicochemical; conditions: distilled water; raw IMB16-4 in water, 25 ± 2 °C, equilibrium about 24 h
Method: An excess amount of raw IMB16-4 was added into 5 mL of distilled water at 25 ± 2 °C. The raw IMB16-4 solution at equilibrium time (about 24 h) was withdrawn and filtered using a 0.22 μm membrane. The subsequent filtrate was diluted with internal standard (4′-Chloroacetanilide) acetonitrile solution and analyzed by HPLC-MS/MS analysis (Thermo LTQ XL, USA). The standard curve for IMB16-4 was the linear (R^2 > 0.992) over the concentration range of 0.3~1200.0 ng/mL. The quantitative ion pair of IMB16-4 and internal standard quantitative were m/z = 499.9/196.0 and m/z = 168.04/126.1, respectively.

[3] = Oral pharmacokinetics study; type: in vivo, Sprague–Dawley (SD) rats; conditions: SD rats, oral gavage 100 mg/kg
Method: The mice were maintained under a specific pathogen-free (SPF) environment with a 12 h light/dark cycle. SD rats (body weight 200 ± 20 g) were fasted overnight and divided into two groups. Raw IMB16-4 and IMB16-4-MSNs were given orally by gavages at a dose of 100 mg/kg, respectively. Before administering, both IMB16-4-MSNs and raw IMB16-4 were dispersed in 0.5% CMC-Na aqueous solution, respectively. Blood samples were collected from the eye socket vein at time points of 0.17, 0.5, 1, 2, 3, 4, 6, 8 and 12 h after dosing. Plasma samples were collected by centrifuging at 3000 rpm for 10 min and were then stored at −20 °C until analysis. Plasma samples were mixed with internal standard (4′-Chloroacetanilide) acetonitrile solution. Then, the mixture was vortex-mixed for 10 s. After centrifugation at 15,000 rpm for 10 min, the supernatant was used for HPLC-MS/MS analysis (AB SCIEX 6500 Qtrap, USA). The condition of the capillary voltage was −4500 V. The temperature was 500 °C. The mobile phase comprised acetonitrile and 10 mM of ammonium acetate aqueous solution. Analysis was carried out on an Xselect HSS T3 column (2.1 × 100 mm, 2.5 μm, Waters) in gradient elution. The column temperature was 40 °C and the flow rate was 0.3 mL/min. The standard curve for IMB16-4 was the linear (R^2 > 0.992) over the concentration range of 4~2048 ng/mL. The quantitative ion pairs of IMB16-4 and internal standard quantitative were m/z = 500.0/195.7 and m/z = 168.0/126.1, respectively. The pharmacokinetic parameters were obtained using statistic software DAS2.0.

[4] = In vitro dissolution, USP II paddle method; type: physicochemical; conditions: release medium, 12 h, 37 °C, 3% SDS
Method: Dissolution studies were conducted using a USP II paddle method (100 rpm, 37 °C, and 900 mL dissolution medium) with a dissolution tester (ZRS-8LD, China). The release of IMB16-4 and IMB16-4-MSNs was performed in pH 1.0 hydrochloric acid solution and pH 6.8 phosphate buffer solutions, containing 3% (w/v) SDS, respectively. All release studies were carried out in triplicate. At predetermined time intervals, 5 mL of sample solution was withdrawn from the release medium and filtered using a 0.22 μm membrane filter before running the HPLC analysis. An equivalent amount of fresh medium was added to maintain a constant dissolution volume.

solubility [2] [µg/mL] | CLz/F [3] | Tmax ([3]; Sprague-Dawley, rat, plasma) [h] | Cmax ([3]; Sprague-Dawley, rat, plasma, in 0.5% CMC-Na) [ng/mL] | AUC ([3]; Sprague-Dawley, rat, plasma, read-out: AUC0≈12 h) [ng·h/mL] | MRT ([3]; Sprague-Dawley, rat, plasma, read-out: MRT0≈12 h) [h] | amount of dissolved IMB16-4 [4] | Molecule | hepatoprotective effects (NAFLD model rats) | protein levels of α-SMA, TGF-β1 and MMP2 (antifibrotic effect) ([1]; dissolved by DMSO) | protein levels of α-SMA, TGF-β1 and MMP2 (antifibrotic effect) ([1]; suspended in sterile water)
– | – | – | – | – | – | – | N-(3,4-dichlorophenyl)-2-(3-trifluoromethoxy) benzamide [IMB17-15] | has hepatoprotective effects | – | –
0.0432 ± 0.0091 (≈ 0.0863 µM) | 54.70 ± 23.57 | 3.43 ± 1.4 | 180 ± 40 | 1240 ± 310 | 5.18 ± 0.77 | about 40% | O=C(Nc1cc(Cl)c(Cl)c(Cl)c1)c1ccccc1NS(=O)(=O)c1cccc([N+](=O)[O-])c1 [IMB16-4, N-(3,4,5-trichlorophenyl)-2(3-nitrobenzenesulfonamido) benzamide] | – | showed potential anti-liver fibrosis effects. However, the differences are not significant | poor inhibition effect
